In patent publication US20040077878A1, “Process for the preparation of tri-nitrogen containing heteroaryl-diamine derivatives useful as pharmaceutical agents and methods of producing pharmaceutical agents” (priority 2002, published 2004):

Molecular target: IMPDH II enzyme (Homo sapiens, UniProt P12268)
Test: assay against the IMPDH II enzyme
Type: biochemical
Text: The present invention enables an efficient and effective production of 1,2,4-triazole-3,5-diamine and/or 1,3,5-triazine-2,4-diamine derivatives, which are useful as pharmaceutical agents and/or as components of pharmaceutical agents, particularly inhibitors of IMPDH, anti-hypertensive agents, and neurokinin receptor antagonists, from readily-available starting compounds. This process provides a convenient synthesis of the target compound from a substituted isothiocyanate, hydrogencyanamide salt, a substituted hydrazine and/or a substituted amidine in moderate to good yield. […] Additionally, tri-nitrogen containing heteroaryl-diamine derivatives of formula (I), 1,2,4-triazole-3,5-diamines of formula (A) and/or (B) and 1,3,5-triazine-2,4-diamines of formula (C) may be readily coupled to a pharmacological core component to provide pharmaceutically active agents, such as, for examples, the compounds described in WO 00/25780, Dunstan et al., Tetrahedron Lett., Vol. 39, (1998), at pp. 7983-7986, U.S. Pat. No. 6,436,928, U.S. patent application No. 20020038030, U.S. Pat. No. 6,172,077 B1, U.S. Pat. No. 5,232,938, U.S. Pat. No. 4,569,933, WO 01/74806A1, WO 01/56987 A1, and EP 1107962 A1, incorporated herein by reference.

COc1cc(Nc2nc(N)n(-c3ccccc3)n2)ccc1-c1cnco1 [Example 13]
IC50: 150 nM
